From ChEMBL document CHEMBL1141993, “Synthesis and biological activity of new 5-O-sugar modified ketolide and 2-fluoro-ketolide antibiotics” (2005)
Values after ≈ are worked out from the molar mass of the structure shown.

Tests used:
Format in all cases: functional
Staphylococcus aureus [1] = experiment: Minimum inhibitory concentration of compound against Staphylococcus aureus ATCC 23029 Ery-S was determined
Streptococcus pyogenes [2] = experiment: Minimum inhibitory concentration of compound against Streptococcus pyogenes ATCC 13029 Ery-R was determined
Streptococcus pyogenes [3] = experiment: Minimum inhibitory concentration of compound against Streptococcus pyogenes ATCC 19615 Ery-S was determined
Staphylococcus aureus [4] = experiment: Minimum inhibitory concentration of compound against Staphylococcus aureus ATCC 96:11480 Ery-R was determined
Haemophilus influenzae [5] = experiment: Minimum inhibitory concentration of compound against Haemophilus influenzae ATCC 49247 Ery-S was determined
Streptococcus pneumoniae [6] = experiment: Minimum inhibitory concentration of compound against Streptococcus pneumoniae ATCC 49163 Ery-R was determined
Streptococcus pneumoniae [7] = experiment: Minimum inhibitory concentration of compound against Streptococcus pneumoniae ATCC 49303 Ery-R was determined
Streptococcus pneumoniae [8] = experiment: Minimum inhibitory concentration of compound against Streptococcus pneumoniae ATCC 49619 Ery-S was determined
Streptococcus pneumoniae [9] = experiment: Minimum inhibitory concentration of compound against Ery-R Streptococcus pneumoniae 163 was determined
Streptococcus pneumoniae [10] = experiment: Minimum inhibitory concentration of compound against Ery-R Streptococcus pneumoniae 5032 was determined
Streptococcus pneumoniae [11] = experiment: Minimum inhibitory concentration of compound against Ery-S Streptococcus pneumoniae 3773 was determined
Streptococcus pyogenes [12] = experiment: Minimum inhibitory concentration of compound against Ery-R Streptococcus pyogenes ATCC 19615 was determined
Haemophilus influenzae [13] = experiment: Minimum inhibitory concentration of compound against Ery-S Haemophilus influenzae ATCC 49247 was determined
Streptococcus pneumoniae [14] = experiment: Minimum inhibitory concentration of compound against Ery-S Streptococcus pneumoniae ATCC 49619 was determined
Streptococcus pyogenes [15] = experiment: Minimum inhibitory concentration of compound against Ery-R Streptococcus pyogenes 1721 was determined
Streptococcus pyogenes [16] = experiment: Minimum inhibitory concentration of compound against Ery-R Streptococcus pyogenes 1850 was determined
Streptococcus pyogenes [17] = experiment: Minimum inhibitory concentration of compound against Ery-R Streptococcus pyogenes 3029 was determined
Streptococcus pyogenes [18] = experiment: Minimum inhibitory concentration of compound against Ery-R Streptococcus pyogenes 3262 was determined
Streptococcus pneumoniae [19] = experiment: Minimum inhibitory concentration of compound against Ery-R Streptococcus pneumoniae 303 was determined
Staphylococcus aureus [20] = experiment: Minimum inhibitory concentration of compound against Ery-R Staphylococcus aureus 96:11480 was determined
Staphylococcus aureus [21] = experiment: Minimum inhibitory concentration of compound against Ery-S Staphylococcus aureus ATCC 29213 was determined
Streptococcus pyogenes [22] = experiment: Minimum inhibitory concentration of compound against Ery-S Streptococcus pyogenes ATCC 19615 was determined
Streptococcus pyogenes [23] = experiment: Minimum inhibitory concentration of compound against Ery-R Streptococcus pyogenes 13029 was determined
Staphylococcus aureus [24] = experiment: Minimum inhibitory concentration of compound against Ery-S Staphylococcus aureus ATCC 23029 was determined
Streptococcus pneumoniae [25] = experiment: 1 Minimum inhibitory concentration of compound against Ery-R Streptococcus pneumoniae 163 was determined

SMILES | MIC (Streptococcus pneumoniae [8]) | MIC (Streptococcus pneumoniae [9]) | MIC (Streptococcus pneumoniae [10]) | MIC (Streptococcus pneumoniae [11]) | MIC (Haemophilus influenzae [13]) | MIC (Streptococcus pneumoniae [14]) | MIC (Streptococcus pyogenes [15]) | MIC (Streptococcus pyogenes [16]) | MIC (Streptococcus pyogenes [17]) | MIC (Streptococcus pyogenes [18]) | MIC (Streptococcus pneumoniae [19]) | MIC (Staphylococcus aureus [20]) | MIC (Staphylococcus aureus [21]) | MIC (Streptococcus pyogenes [22]) | other results
CC[C@H]1OC(=O)[C@H](C)C(=O)[C@H](C)[C@@H](O[C@@H]2O[C@H](COCc3ccccc3)[C@@H](O)[C@H](N(C)C)[C@H]2O)[C@@](C)(OC)C[C@@H](C)C(=O)[C@H](C)[C@H]2N(CCCCn3cc(-c4ccccn4)nn3)C(=O)O[C@]12C | ≤ 0.125 µg/mL |  |  |  |  |  |  |  |  |  |  |  |  |  | MIC (Staphylococcus aureus [1]): ≤ 0.125 µg/mL; MIC (Streptococcus pyogenes [2]): 2 µg/mL (≈ 2.14 µM); MIC (Streptococcus pyogenes [3]): ≤ 0.125 µg/mL; MIC (Staphylococcus aureus [4]): ≤ 0.125 µg/mL; MIC (Haemophilus influenzae [5]): 64 µg/mL (≈ 68.4 µM); MIC (Streptococcus pneumoniae [6]): ≤ 0.125 µg/mL; MIC (Streptococcus pneumoniae [7]): ≤ 0.125 µg/mL
CC[C@H]1OC(=O)[C@H](C)C(=O)[C@H](C)[C@@H](O[C@@H]2O[C@H](COCc3ccccc3)C[C@H](N(C)C)[C@H]2O)[C@@](C)(OC)C[C@@H](C)C(=O)[C@H](C)[C@H]2N(CCCCn3cc(-c4ccccn4)nn3)C(=O)O[C@]12C | ≤ 0.125 µg/mL |  |  |  |  |  |  |  |  |  |  |  |  |  | MIC (Streptococcus pyogenes [2]): 0.5 µg/mL (≈ 0.544 µM); MIC (Haemophilus influenzae [5]): 64 µg/mL (≈ 69.6 µM); MIC (Streptococcus pneumoniae [6]): ≤ 0.125 µg/mL; MIC (Streptococcus pneumoniae [7]): ≤ 0.125 µg/mL
CC[C@H]1OC(=O)[C@@](C)(F)C(=O)[C@H](C)[C@@H](O[C@@H]2O[C@H](COCc3ccccc3)[C@@H](O)[C@H](N(C)C)[C@H]2O)[C@@](C)(OC)C[C@@H](C)C(=O)[C@H](C)[C@H]2N(CCCCn3cc(-c4cccc(N)c4)nn3)C(=O)O[C@]12C |  | ≤ 0.125 µg/mL | 4 µg/mL (≈ 4.14 µM) | 8 µg/mL (≈ 8.27 µM) | 4 µg/mL (≈ 4.14 µM) | ≤ 0.125 µg/mL | 8 µg/mL (≈ 8.27 µM) | 0.25 µg/mL (≈ 0.258 µM) | 0.5 µg/mL (≈ 0.517 µM) | 4 µg/mL (≈ 4.14 µM) | ≤ 0.125 µg/mL |  |  |  | MIC (Streptococcus pyogenes [12]): ≤ 0.125 µg/mL
CC[C@H]1OC(=O)[C@H](C)C(=O)[C@H](C)[C@@H](O[C@@H]2O[C@H](C)C[C@H](N(C)C)[C@H]2O)[C@](C)(OC)C[C@@H](C)C(=O)[C@H](C)[C@H]2N(CCCCn3cnc(-c4cccnc4)c3)C(=O)O[C@]12C [TELITHROMYCIN] | ≤ 0.125 µg/mL | ≤ 0.125 µg/mL | 0.5 µg/mL (≈ 0.616 µM) | 1 µg/mL (≈ 1.23 µM) | 4 µg/mL (≈ 4.93 µM) |  | 64 µg/mL (≈ 78.8 µM) | 8 µg/mL (≈ 9.85 µM) | 16 µg/mL (≈ 19.7 µM) | 32 µg/mL (≈ 39.4 µM) | ≤ 0.125 µg/mL | ≤ 0.125 µg/mL | ≤ 0.125 µg/mL | ≤ 0.125 µg/mL | 
CC[C@H]1OC(=O)[C@H](C)C(=O)[C@H](C)[C@@H](O[C@@H]2O[C@H](C)[C@@H](O)[C@H](O)[C@H]2O)[C@@](C)(OC)C[C@@H](C)C(=O)[C@H](C)[C@H]2N(CCCCn3cc(-c4ccccn4)nn3)C(=O)O[C@]12C | 4 µg/mL (≈ 4.99 µM) | 2 µg/mL (≈ 2.49 µM) |  |  | > 64 µg/mL |  |  |  |  |  | 16 µg/mL (≈ 20 µM) | > 64 µg/mL | > 64 µg/mL |  | MIC (Streptococcus pyogenes [3]): 8 µg/mL (≈ 9.98 µM)
CC[C@H]1OC(=O)[C@H](C)C(=O)[C@H](C)[C@@H](O[C@@H]2O[C@H](C)[C@@H](O)[C@H](N(C)C)[C@H]2O)[C@@](C)(OC)C[C@@H](C)C(=O)[C@H](C)[C@H]2N(CCCCn3cc(-c4ccccn4)nn3)C(=O)O[C@]12C |  | 0.5 µg/mL (≈ 0.603 µM) |  |  | 16 µg/mL (≈ 19.3 µM) | ≤ 0.125 µg/mL |  |  | > 64 µg/mL |  | 16 µg/mL (≈ 19.3 µM) | 0.25 µg/mL (≈ 0.302 µM) | ≤ 0.125 µg/mL | ≤ 0.125 µg/mL | 
CC[C@H]1OC(=O)[C@H](C)C(=O)[C@H](C)[C@@H](O[C@@H]2OC[C@@H](O)[C@H](N(C)C)[C@H]2O)[C@@](C)(OC)C[C@@H](C)C(=O)[C@H](C)[C@H]2N(CCCCn3cc(-c4ccccn4)nn3)C(=O)O[C@]12C |  | 2 µg/mL (≈ 2.45 µM) |  |  | > 64 µg/mL | 4 µg/mL (≈ 4.91 µM) |  |  |  |  | 16 µg/mL (≈ 19.6 µM) | 4 µg/mL (≈ 4.91 µM) | 4 µg/mL (≈ 4.91 µM) | ≤ 0.125 µg/mL | 
CC[C@H]1OC(=O)[C@@](C)(F)C(=O)[C@H](C)[C@@H](O[C@@H]2O[C@H](COCc3ccccc3)C[C@H](N(C)C)[C@H]2O)[C@@](C)(OC)C[C@@H](C)C(=O)[C@H](C)[C@H]2N(CCCCn3cc(-c4cccc(N)c4)nn3)C(=O)O[C@]12C |  | ≤ 0.125 µg/mL | 0.25 µg/mL (≈ 0.263 µM) | 4 µg/mL (≈ 4.21 µM) | 4 µg/mL (≈ 4.21 µM) | ≤ 0.125 µg/mL | 8 µg/mL (≈ 8.41 µM) | 0.25 µg/mL (≈ 0.263 µM) | ≤ 0.125 µg/mL | 0.5 µg/mL (≈ 0.526 µM) | ≤ 0.125 µg/mL |  |  |  | 
CC[C@H]1OC(=O)[C@@](C)(F)C(=O)[C@H](C)[C@@H](O[C@@H]2O[C@H](CO)[C@@H](O)[C@H](N(C)C)[C@H]2O)[C@@](C)(OC)C[C@@H](C)C(=O)[C@H](C)[C@H]2N(CCCCn3cc(-c4cccc(N)c4)nn3)C(=O)O[C@]12C |  | ≤ 0.125 µg/mL | > 32 µg/mL | > 32 µg/mL | > 32 µg/mL | ≤ 0.125 µg/mL | > 32 µg/mL | > 32 µg/mL | > 32 µg/mL | > 32 µg/mL | ≤ 0.125 µg/mL |  |  |  | MIC (Streptococcus pyogenes [12]): ≤ 0.125 µg/mL
CC[C@H]1OC(=O)[C@H](C)[C@@H](O[C@H]2C[C@@](C)(OC)[C@@H](O)[C@H](C)O2)[C@H](C)[C@@H](O[C@@H]2O[C@H](C)C[C@H](N(C)C)[C@H]2O)[C@](C)(O)C[C@@H](C)CN(C)[C@H](C)[C@@H](O)[C@]1(C)O [AZITHROMYCIN] |  | 8 µg/mL (≈ 10.7 µM) | > 64 µg/mL | > 64 µg/mL | 4 µg/mL (≈ 5.34 µM) | ≤ 0.125 µg/mL | > 64 µg/mL | > 64 µg/mL |  | > 64 µg/mL | > 64 µg/mL | ≥ 64 µg/mL |  | ≤ 0.125 µg/mL | MIC (Streptococcus pyogenes [23]): > 64 µg/mL; MIC (Staphylococcus aureus [24]): 1 µg/mL (≈ 1.34 µM)
CC[C@H]1OC(=O)[C@H](C)C(=O)[C@H](C)[C@@H](O[C@@H]2O[C@H](CO)[C@@H](O)[C@H](N(C)C)[C@H]2O)[C@@](C)(OC)C[C@@H](C)C(=O)[C@H](C)[C@H]2N(CCCCn3cc(-c4ccccn4)nn3)C(=O)O[C@]12C |  |  |  |  | 64 µg/mL (≈ 75.7 µM) | ≤ 0.125 µg/mL |  |  | > 64 µg/mL |  | ≤ 0.125 µg/mL | 64 µg/mL (≈ 75.7 µM) | 4 µg/mL (≈ 4.73 µM) | ≤ 0.125 µg/mL | MIC (Streptococcus pneumoniae [25]): 4 µg/mL (≈ 4.73 µM)
CC[C@H]1OC(=O)[C@H](C)C(=O)[C@H](C)[C@@H](O[C@@H]2O[C@H](C)C[C@H](N(C)C)[C@H]2O)[C@@](C)(OC)C[C@@H](C)C(=O)[C@H](C)[C@H]2N(CCCCn3cc(-c4ccccn4)nn3)C(=O)O[C@]12C |  | ≤ 0.125 µg/mL |  |  | 4 µg/mL (≈ 4.92 µM) | ≤ 0.125 µg/mL |  |  | > 64 µg/mL |  | ≤ 0.125 µg/mL | 0.125 µg/mL (≈ 0.154 µM) | ≤ 0.125 µg/mL | ≤ 0.125 µg/mL | 
